# Measurements from US5804415A, “Prostaglandin E receptors, their DNA and production” (Takeda Chemical Industries, Ltd., priority 1992, dated 1998).
# Assays:
# [1] = target: PGE2 receptor (EP2) (MP412) (Mus musculus, UniProt P32240); experiment: Inhibition of [3H]-PGE2 binding to MP412-transfected COS-1 cell membranes; conditions: for inhibition of PGE2 binding by subtype ligands: FIG. 8; for order of inhibition of specific [3H]-PGE2 binding by unlabeled PG: FIG. 7
# Protocol: Mouse mastocytoma P-815 cell cDNA library carring cDNAs larger than 2.0 kb was prepared according to Example 1 (2). The probe DNA was prepared by PCR using mouse EP3 cDNA as a template; this 482 bp fragment covers the transmembrane segments I-IV region of the EP3 receptor. The 2.0×10^5 clones derived from the cDNA library were screened under either high (Sambrook) or low stringency condition. […] This cDNA was transfected into COS-1 cells according to the same manner as in Example 1 (3).
# After the COS-1 cells carring the plasmid DNA obtained in above (1) were cultured for 72 h, cells were harvested and cell membranes were prepared.
# [2] = target: T1, PGE2 receptor (EP3), subtype EP3α (MP660) (Mus musculus, UniProt P30557); experiment: Inhibition of [3H]-PGE2 binding to MP660-transfected COS-1 cell membranes; ligand-binding test; conditions: for potency in competing for [3H]PGE2 binding relative to PGE2 / competition for [3H]PGE2 binding: FIG. 2b; for competition for [3H]PGE2 binding: PGE analogues; for order of inhibition of [3H]PGE2 binding by unlabeled PGs: FIG. 2a
# T1 sequence (P30557 1-365): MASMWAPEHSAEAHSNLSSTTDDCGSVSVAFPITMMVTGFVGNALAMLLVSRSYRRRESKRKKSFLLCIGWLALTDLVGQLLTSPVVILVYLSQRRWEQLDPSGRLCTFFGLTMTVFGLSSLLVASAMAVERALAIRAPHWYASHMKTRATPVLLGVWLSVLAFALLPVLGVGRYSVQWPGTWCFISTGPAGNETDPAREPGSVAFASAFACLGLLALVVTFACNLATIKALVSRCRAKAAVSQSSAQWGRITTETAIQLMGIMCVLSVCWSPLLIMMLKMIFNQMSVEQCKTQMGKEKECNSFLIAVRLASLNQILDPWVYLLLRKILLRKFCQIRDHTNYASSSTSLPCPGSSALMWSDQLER
# Excerpt: (§1) The cDNA of MP660 was cleaved out with EcoRI and inserted to pcDNAI (Invitrogen) and subcloned, followed by transfection of this plasmid DNA to COS-1 cells by the DEAE-dextran method [D. J. Sussmann and G. Milman, Mol. Cell. Biol., 4, 1641 (1984)]. After 72-hour cultivation, cells were harvested and cell membranes were separated [M. Hirata al., Nature, 349, 617 (1991)].
# [3] = system: EP3β receptor (MP653/KCR cells); experiment: Forskolin-stimulated cAMP synthesis in CHO cells stably expressing EP3β (MP653/KCR cells); format: cell-based, mouse
# Protocol: (§2) To obtain cells that stably express the receptor gene, cDNA transfection was conducted by the method described by Nakajima et al. [J. Biol. Chem., 267, 2437 (1992)] to establish a cell line. Specifically, the EcoRI fragment of MP653 was inserted to pdKCR-dhfr [S. Oikawa et al., Biochem. Biophys. Res. Commun., 164, 39 (1989)], a eukaryotic cell expression vector having the mouse dhfr gene as a selection marker. This plasmid was transfected to CHO-dhfr(lacking dihydrofolate reductase activity) cells [G. Urlaub and L. A. Chasin, Proc. Natl. Acad. Sci. USA, 77, 4216 (1980)] by the calcium phosphate method [(F. L. Graham and A. J. van der Eb, Virology, 52, 456 (1973)]. The cells were subjected to selection culture in α-modified Eagle's medium [S. Oikawa et al., Biochem. Biophys. Res. Commun., 164, 39 (1989)] which contained no ribonucleoside and deoxyribonucleoside and which contained 100 unit/ml penicillin, 100 μg/ml streptomycin and 10% dialyzed bovine fetal serum (Cell Culture Laboratories). The cells which proliferated were cloned to have clone cells. EP3β receptor cDNA transfection was confirmed by the RNA blotting method. Using thus-obtained CHO cells which constantly express the EP3β receptor [MP653/KCR cells; IFO 50397, FERM BP-4183], the effect of PGE2 on forskolin-stimulated cAMP synthesis or M&B28, 767, an EP3 -specific agonist was assessed.
# [4] = target: T2, EP3α receptor (MP660/KCR cells) (Mus musculus, UniProt P30557); experiment: Forskolin-stimulated cAMP synthesis in CHO cells stably expressing EP3α (MP660/KCR cells); format: cell-based
# T2 construct: A full-length DNA clone having a 1,095 bp open reading frame, MP660, was thus obtained; expressed in transfected cells; host or cells: CHO-dhfr (lacking dihydrofolate reductase activity) cells; FERM BP-3803)
# T2 sequence (P30557 1-365): T1 sequence (P30557 1-365)
# Protocol: as §2, with “MP660” for “MP653”, “CHO-dhfr (lacking” for “CHO-dhfr(lacking”, “[F.” for “[(F.”, “and” for “to have”, “cells were obtained. EP3α” for “cells. EP3β”, “method.” for “method. Using thus-obtained CHO cells which constantly express the EP3β receptor [MP653/KCR cells; IFO 50397, FERM BP-4183], the effect of PGE2 on forskolin-stimulated cAMP synthesis or M&B28, 767, an EP3 -specific agonist was assessed.”
# EP2 = conditions: literature; cited from earlier work
# EP2 receptor (MP412) = target: T3, EP2 receptor (MP412) (Mus musculus, UniProt P32240); experiment: cAMP assay in MP412-transfected COS-1 cells; format: cell-based
# T3 construct: cAMP and inositol phosphate tests
# Protocol: For cAMP assay, the plasmid DNA was transfected into COS-1 cells by the lipofection method (P. L. Felgner et al., Proc. Natl. Acad. Sci., 84, 7413 (1987)) and cultured for 72 h in a 24-well plate. Cyclic AMP levels in the cells were determined according to the method of Nakajima et al. (J. Biol. Chem. 267, 2437 (1992)).
# EP3β receptor (MP653) = experiment: Ligand-binding assay, [3H]-PGE2 binding to MP653-transfected COS-1 cell membranes; design: species or system mouse
# Excerpt: as §1, with “MP653” for “MP660”, “Hirata et” for “Hirata”, “(1991)]. […] Also, the PGE2 receptor obtained was identified as the subtype EP3β receptor. The result of inhibitory activities of various ligands on the binding of [^3 H]-PGE2 to the MP653-transfected cell membrance was substantially the same as on the binding of [^3 H]-PGE2 to the MP660--transfected cell membrance obtained in Example 1.” for “(1991)].”
# [5] = system: membranes of untransfected cells; experiment: [3H]-PGE2 binding to membranes of untransfected COS-1 cells (control); conditions: untransfected COS-1 cell membranes
# Excerpt: as §1, with “(1991)]. […] Also, the PGE2 receptor obtained was identified as the subtype EP3α receptor.” for “(1991)].”
# After the COS-1 cells carring the plasmid DNA obtained in above (1) were cultured for 72 h, cells were harvested and cell membranes were prepared. […] The lack of binding activity of butaprost in mouse EP2 might indicate that the action of butaprost is species specific or there may be other forms of EP2 receptor subtype.
# PGE2 receptor (EP2) (MP412), sequence (P32240 whole entry, the tested form may be a part): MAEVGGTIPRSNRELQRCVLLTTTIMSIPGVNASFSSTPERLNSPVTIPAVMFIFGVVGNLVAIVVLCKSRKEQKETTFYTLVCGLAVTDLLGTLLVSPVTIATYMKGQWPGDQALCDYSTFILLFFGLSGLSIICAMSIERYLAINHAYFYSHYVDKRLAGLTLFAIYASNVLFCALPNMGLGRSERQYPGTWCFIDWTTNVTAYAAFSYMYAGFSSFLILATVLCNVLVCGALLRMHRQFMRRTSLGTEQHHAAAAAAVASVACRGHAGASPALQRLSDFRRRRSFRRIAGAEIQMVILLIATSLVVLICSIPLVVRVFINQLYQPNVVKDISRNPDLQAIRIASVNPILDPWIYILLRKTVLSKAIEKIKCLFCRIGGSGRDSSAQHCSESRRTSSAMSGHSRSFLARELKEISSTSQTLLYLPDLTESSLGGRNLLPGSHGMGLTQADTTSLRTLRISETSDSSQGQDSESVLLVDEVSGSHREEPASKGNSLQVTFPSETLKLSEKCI
# T3 sequence (P32240 whole entry): as the sequence (P32240 whole entry, the tested form may be a part) above
inhibition of PGE2 binding by subtype ligands [1],SMILES,competition for [3H]PGE2 binding [2],order of inhibition of [3H]PGE2 binding by unlabeled PGs [2],order of inhibition of specific [3H]-PGE2 binding by unlabeled PG [1],further results
inhibited,CCCCC(C)(O)C/C=C/[C@H]1[C@H](O)CC(=O)[C@@H]1CCCCCCC(=O)OC (mixture of isomers) [misoprostol],,,,
,O=C(CC/C=C\CC[C@H]1C(=O)C[C@@H](O)[C@@H]1OCC(O)COc1ccccc1)Oc1ccc(NC(=O)c2ccccc2)cc1 (some centres unmarked) [GR 63799X],specifically competed for the[^3 H]PGE2 binding with equal potency,,,potency in competing for [3H]PGE2 binding relative to PGE2 [2]: more potent than PGE2 itself
more weakly,"O=C(O)CCCCCC[C@H]1C(=O)CC[C@@H]1/C=C/[C@@H](O)COc1ccccc1 [M&B 28,767]",specifically competed for the[^3 H]PGE2 binding with equal potency,,,potency in competing for [3H]PGE2 binding relative to PGE2 [2]: more potent than PGE2 itself; effect on forskolin-stimulated cAMP synthesis [3]: cAMP synthesis in MP653/KCR cells is inhibited; effect on forskolin-induced cAMP synthesis/accumulation ([4]; FIG. 3): inhibited forskolin-induced cAMP synthesis; potency in inhibiting forskolin-induced cAMP synthesis relative to PGE2 ([4]; FIG. 3): more potent than (PGE2; cross-reaction to EP2 (EP2): weak cross-reaction
,CCCCC[C@H](O)/C=C/[C@H]1C(=O)C[C@H](O)[C@@H]1C/C=C\CCCC(=O)O [PGD2],,"PGE2 =PGE1 >iloprost, a PGI2 analogue>PGF2α >PGD2","PGE2 (.largecircle.)=PGE1 (.circle-solid.)>>iloprost(.box-solid.), a stable PGI2 analogue ≥PGF2α (Δ)PGD2 (.quadrature.)",
,CCCCC[C@H](O)/C=C/[C@H]1[C@H](O)CC(=O)[C@@H]1CCCCCCC(=O)O [PGE1],,"PGE2 =PGE1 >iloprost, a PGI2 analogue>PGF2α >PGD2","PGE2 (.largecircle.)=PGE1 (.circle-solid.)>>iloprost(.box-solid.), a stable PGI2 analogue ≥PGF2α (Δ)PGD2 (.quadrature.)",
,"CCCCC[C@H](O)/C=C/[C@H]1[C@H](O)CC(=O)[C@@H]1C/C=C\CCCC(=O)O [PGE2, prostaglandin E2]",,"PGE2 =PGE1 >iloprost, a PGI2 analogue>PGF2α >PGD2","PGE2 (.largecircle.)=PGE1 (.circle-solid.)>>iloprost(.box-solid.), a stable PGI2 analogue ≥PGF2α (Δ)PGD2 (.quadrature.)","inhibition of forskolin-induced cAMP formation (EP2 receptor (MP412); forskolin): neither inhibited forskolin-induced cAMP formation; cAMP level (EP2 receptor (MP412); no forskolin stated, FIG. 9): dose-dependently increased cAMP level; effect on forskolin-stimulated cAMP synthesis [3]: cAMP synthesis in MP653/KCR cells is inhibited; effect on forskolin-induced cAMP synthesis/accumulation ([4]; FIG. 3): dosedependent decrease; IC50 ([4]; forskolin-induced, FIG. 3, read-out: IC50 (inhibition of forskolin-induced cAMP synthesis)): 0.1 nM"
,CCCCC[C@H](O)/C=C/[C@@H]1[C@@H](C/C=C\CCCC(=O)O)[C@@H](O)C[C@H]1O [PGF2α],,"PGE2 =PGE1 >iloprost, a PGI2 analogue>PGF2α >PGD2","PGE2 (.largecircle.)=PGE1 (.circle-solid.)>>iloprost(.box-solid.), a stable PGI2 analogue ≥PGF2α (Δ)PGD2 (.quadrature.)",
did not inhibit it,CC(=O)NNC(=O)N1Cc2ccccc2Oc2ccc(Cl)cc21 [SC-19220],no competition was found at all,,,
,CCCCC[C@H](O)/C=C/[C@H]1[C@H](O)CC(=O)[C@@H]1C/C=C\CCCC(=O)O [[3H]-PGE2],,,,specific binding of [3H]-labeled prostaglandin [2]: found to show specific binding; specific binding of [3H]-labeled prostaglandin (EP3β receptor (MP653)): found to show specific binding; specific binding of [3H]-labeled prostaglandin [1]: found to show specific binding; binding to membranes of untransfected cells ([5]; listed as [^3 H]-PGE2): almost negligible; binding to membranes of untransfected cells ([5]; listed as [^3 H]PGE2): did not bind to membranes of untransfected cells
did not inhibit it,CCCC1([C@H](O)C/C=C/[C@H]2[C@H](O)CC(=O)[C@@H]2CCCCCCC(=O)OC)CCC1 [butaprost],no competition was found at all,,,
,CC#CCC(C)[C@H](O)/C=C/[C@@H]1[C@H]2C/C(=C/CCCC(=O)O)C[C@H]2C[C@H]1O (some centres unmarked) [iloprost],,"PGE2 =PGE1 >iloprost, a PGI2 analogue>PGF2α >PGD2","PGE2 (.largecircle.)=PGE1 (.circle-solid.)>>iloprost(.box-solid.), a stable PGI2 analogue ≥PGF2α (Δ)PGD2 (.quadrature.)",
did not inhibit it,CS(=O)(=O)NC(=O)CCC/C=C\C[C@H]1C(=O)C[C@@H](O)[C@@H]1/C=C/[C@@H](O)COc1ccccc1 [sulprostone],,,,
